The values below are quoted from earlier work in PMC11954708 (Clinical Pharmacokinetics, 2025).

The conditions of data set [1]: for Positive FE in vivo: Yes/No; for AUC ratio Observed: fed/fasted in vivo.
For data set [2] the following is noted: total body clearance value.

For `NC(=O)N1c2ccccc2C=Cc2ccccc21` [Carbamazepine], in data set [1], the “Positive FE in vivo” value was “Yes” and the “AUC ratio Observed” value is reported as 1.12. The CL in data set [2] was 2.7 [50] l/h.
On to `COC(=O)[C@H](c1ccccc1Cl)N1CCc2sccc2C1` [Clopidogrel], for which the “Positive FE in vivo” value in data set [1] is given as “Yes”. Also, the CL in data set [2] was 84 [52] l/h.
On to `C[C@H]1O[C@@H](O[C@H]2[C@@H](O)C[C@H](O[C@H]3[C@@H](O)C[C@H](O[C@H]4CC[C@@]5(C)[C@H](CC[C@@H]6[C@@H]5C[C@@H](O)[C@]5(C)[C@@H](C7=CC(=O)OC7)CC[C@]65O)C4)O[C@@H]3C)O[C@@H]2C)C[C@H](O)[C@@H]1O` [Digoxin], for which, in data set [2], the CL is 5.28 [51] l/h. Further, in the data set with CYP3A4 or UGT, the “CYP3A4 or UGT substrate?” value is “No”.
For the molecule `O=C1Nc2ccc(Cl)cc2[C@@](C#CC2CC2)(C(F)(F)F)O1` [Efavirenz], in data set [1], the “Positive FE in vivo” value is on record as “Yes” and the “AUC ratio Observed” value was 1.28. Further, the “CL (po)” value in data set [2] was 9.4 (po) [51] l/h.
For the molecule `CCOC(=O)C1=C(C)NC(C)=C(C(=O)OC)C1c1cccc(Cl)c1Cl` (centres unmarked) [Felodipine], in data set [1], the “Positive FE in vivo” value was “No”.
On to `Cc1cccc(Nc2ccccc2C(=O)O)c1C` [Mefenamic acid], for which, in data set [1], the “Positive FE in vivo” value is given as “No”. Further, the “CL (po)” value in data set [2] was 21.23 (po) [51] l/h. Moreover, in the data set on CYP3A4 or UGT, the “CYP3A4 or UGT substrate?” value was “No”.
